# Target: Metabotropic glutamate receptor 8 (Homo sapiens, UniProt O00222)
# Test: Positive allosteric modulation of mGluR8 (unknown origin) by calcium mobilization assay
# Assay type: functional
row,SMILES,EC50 [nM]
1,Cc1ccc2c(c1)C(=O)N(c1ccc(NC(=O)c3occc3C)c(F)c1)C2=O,> 30000

# Target: Metabotropic glutamate receptor 2 (Homo sapiens, UniProt Q14416)
# Test: Positive allosteric modulation of mGluR2 (unknown origin) by calcium mobilization assay
# Assay type: functional
# Sequence of Metabotropic glutamate receptor 2 (Q14416 whole entry): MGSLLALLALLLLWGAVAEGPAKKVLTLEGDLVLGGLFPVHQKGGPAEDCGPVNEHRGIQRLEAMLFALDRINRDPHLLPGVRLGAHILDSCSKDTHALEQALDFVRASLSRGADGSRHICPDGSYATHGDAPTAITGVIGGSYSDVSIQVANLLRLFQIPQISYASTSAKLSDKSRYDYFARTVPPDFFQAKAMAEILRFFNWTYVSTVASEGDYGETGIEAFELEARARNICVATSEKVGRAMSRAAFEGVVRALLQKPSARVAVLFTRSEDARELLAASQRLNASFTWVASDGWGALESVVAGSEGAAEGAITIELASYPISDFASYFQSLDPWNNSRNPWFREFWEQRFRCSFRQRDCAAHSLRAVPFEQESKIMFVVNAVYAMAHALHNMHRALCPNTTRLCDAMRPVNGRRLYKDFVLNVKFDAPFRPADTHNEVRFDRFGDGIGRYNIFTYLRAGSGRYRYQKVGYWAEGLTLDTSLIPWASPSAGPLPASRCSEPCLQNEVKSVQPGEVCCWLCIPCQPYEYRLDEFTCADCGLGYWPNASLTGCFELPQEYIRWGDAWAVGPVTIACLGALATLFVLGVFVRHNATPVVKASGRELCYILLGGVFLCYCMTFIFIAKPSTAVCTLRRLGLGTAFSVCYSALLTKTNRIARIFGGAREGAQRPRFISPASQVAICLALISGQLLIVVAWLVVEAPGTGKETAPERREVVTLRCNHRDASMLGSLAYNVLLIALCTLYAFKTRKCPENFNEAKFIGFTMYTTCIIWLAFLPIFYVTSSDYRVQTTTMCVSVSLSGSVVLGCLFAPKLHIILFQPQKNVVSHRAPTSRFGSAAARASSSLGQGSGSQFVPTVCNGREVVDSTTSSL
row,SMILES,EC50 [nM]
1,Cc1ccc2c(c1)C(=O)N(c1ccc(NC(=O)c3occc3C)c(F)c1)C2=O,> 30000

# Target: Metabotropic glutamate receptor 3 (Homo sapiens, UniProt Q14832)
# Test: Positive allosteric modulation of mGluR3 (unknown origin) by calcium mobilization assay
# Assay type: functional
row,SMILES,EC50 [nM]
1,Cc1ccc2c(c1)C(=O)N(c1ccc(NC(=O)c3occc3C)c(F)c1)C2=O,> 30000

# Target: Metabotropic glutamate receptor 7 (Homo sapiens, UniProt Q14831)
# Test: Positive allosteric modulation of human mGluR7 in presence of EC20 concentration of L-AP4 by calcium mobilization assay
# Assay type: functional
# Sequence of Metabotropic glutamate receptor 7 (Q14831 whole entry): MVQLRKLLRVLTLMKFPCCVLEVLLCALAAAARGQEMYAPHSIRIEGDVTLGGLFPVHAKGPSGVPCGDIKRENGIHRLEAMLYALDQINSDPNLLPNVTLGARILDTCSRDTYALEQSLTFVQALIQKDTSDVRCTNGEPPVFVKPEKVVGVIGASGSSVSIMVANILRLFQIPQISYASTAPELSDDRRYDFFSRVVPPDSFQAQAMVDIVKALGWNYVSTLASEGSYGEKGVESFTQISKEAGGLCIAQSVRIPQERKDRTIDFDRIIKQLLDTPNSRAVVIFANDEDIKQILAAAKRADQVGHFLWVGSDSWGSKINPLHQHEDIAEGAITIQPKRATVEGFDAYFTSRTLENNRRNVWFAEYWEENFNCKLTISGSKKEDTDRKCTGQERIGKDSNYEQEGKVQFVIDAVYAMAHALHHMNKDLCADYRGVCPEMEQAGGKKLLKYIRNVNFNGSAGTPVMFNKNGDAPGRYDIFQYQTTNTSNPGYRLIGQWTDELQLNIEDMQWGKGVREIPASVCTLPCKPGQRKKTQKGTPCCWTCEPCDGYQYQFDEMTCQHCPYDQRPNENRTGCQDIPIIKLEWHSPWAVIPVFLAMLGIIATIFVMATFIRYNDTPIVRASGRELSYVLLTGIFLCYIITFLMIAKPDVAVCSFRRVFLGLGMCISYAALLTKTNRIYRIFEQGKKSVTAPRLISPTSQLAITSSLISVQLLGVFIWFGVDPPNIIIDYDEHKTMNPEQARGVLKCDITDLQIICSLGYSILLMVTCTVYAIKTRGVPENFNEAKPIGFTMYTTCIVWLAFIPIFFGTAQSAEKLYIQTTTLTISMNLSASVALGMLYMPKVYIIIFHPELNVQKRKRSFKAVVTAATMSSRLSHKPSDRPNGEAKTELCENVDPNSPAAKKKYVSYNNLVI
row,SMILES,EC50 [nM]
1,Cc1ccc2c(c1)C(=O)N(c1ccc(NC(=O)c3occc3C)c(F)c1)C2=O,> 30000
2,Cc1nc(C(=O)Nc2cc(F)c(N3C(=O)C4=C(CCCC4)C3=O)cc2C)cs1,1340
3,Cc1cc(N2C(=O)C3=C(CCCC3)C2=O)c(F)cc1NC(=O)c1occc1C,372
4,Cc1cc(N2C(=O)C3=C(CCCC3)C2=O)c(F)cc1NC(=O)c1ccco1,377
5,Cc1cc(N2C(=O)C3=C(CCCC3)C2=O)c(F)cc1NC(=O)c1ccc(Cl)o1,400

# System: not listed separately
# Test: Protein binding in rat plasma assessed as fraction unbound
# Assay type: ADME, cell-free
row,SMILES,fraction unbound
1,Cc1cc(NC(=O)c2occc2C)c(F)cc1N1C(=O)c2ccccc2C1=O,0.012
2,Cc1cc(N2C(=O)C3=C(CCCC3)C2=O)c(F)cc1NC(=O)c1occc1C,0.012
3,Cc1ccoc1C(=O)Nc1cc(F)c(N2C(=O)c3cccc(Cl)c3C2=O)c(F)c1F,0.012

# Target: Metabotropic glutamate receptor 1 (Homo sapiens, UniProt Q13255)
# Test: Positive allosteric modulation of human mGluR1 in presence of EC20 concentration of glutamate by calcium mobilization assay
# Assay type: functional
# Sequence of Metabotropic glutamate receptor 1 (Q13255 whole entry): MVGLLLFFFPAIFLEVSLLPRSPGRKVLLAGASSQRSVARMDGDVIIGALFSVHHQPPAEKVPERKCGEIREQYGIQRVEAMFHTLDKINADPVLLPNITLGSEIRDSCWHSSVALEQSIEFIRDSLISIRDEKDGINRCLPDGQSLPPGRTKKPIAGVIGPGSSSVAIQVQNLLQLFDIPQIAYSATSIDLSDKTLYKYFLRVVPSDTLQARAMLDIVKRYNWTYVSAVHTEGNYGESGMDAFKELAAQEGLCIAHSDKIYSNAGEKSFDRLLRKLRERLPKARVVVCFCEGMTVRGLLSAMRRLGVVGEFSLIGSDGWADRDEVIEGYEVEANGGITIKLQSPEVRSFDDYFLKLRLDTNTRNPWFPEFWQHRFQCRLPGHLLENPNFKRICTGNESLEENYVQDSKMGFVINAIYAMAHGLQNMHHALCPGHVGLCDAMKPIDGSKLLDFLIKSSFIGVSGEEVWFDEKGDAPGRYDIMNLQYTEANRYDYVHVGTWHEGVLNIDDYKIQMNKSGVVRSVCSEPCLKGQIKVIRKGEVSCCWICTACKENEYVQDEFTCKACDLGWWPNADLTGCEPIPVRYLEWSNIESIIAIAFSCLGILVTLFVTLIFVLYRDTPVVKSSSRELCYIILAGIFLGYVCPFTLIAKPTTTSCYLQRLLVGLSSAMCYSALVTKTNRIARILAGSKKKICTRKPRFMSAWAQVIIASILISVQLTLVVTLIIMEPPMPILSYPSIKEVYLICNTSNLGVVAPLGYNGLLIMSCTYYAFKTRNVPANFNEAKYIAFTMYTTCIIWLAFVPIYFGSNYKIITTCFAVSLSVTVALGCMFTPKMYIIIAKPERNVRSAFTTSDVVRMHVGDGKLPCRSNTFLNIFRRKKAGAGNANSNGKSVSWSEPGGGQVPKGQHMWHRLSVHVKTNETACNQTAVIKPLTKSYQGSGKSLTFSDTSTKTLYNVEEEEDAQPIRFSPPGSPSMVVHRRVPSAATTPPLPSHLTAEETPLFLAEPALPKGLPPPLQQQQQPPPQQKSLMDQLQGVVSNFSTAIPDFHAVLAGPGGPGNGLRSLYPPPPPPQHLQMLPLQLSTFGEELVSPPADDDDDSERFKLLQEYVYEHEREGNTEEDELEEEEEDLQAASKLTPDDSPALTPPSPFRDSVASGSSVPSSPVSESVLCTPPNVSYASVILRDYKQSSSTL
row,SMILES,EC50 [nM]
1,Cc1ccoc1C(=O)Nc1ccc(N2C(=O)c3ccccc3C2=O)c(C#N)c1,> 10000
2,Cc1ccoc1C(=O)Nc1c(F)cc(N2C(=O)C3=C(CCCC3)C2=O)c(F)c1F,> 10000
3,Cc1ccc2c(c1)C(=O)N(c1ccc(NC(=O)c3occc3C)c(F)c1)C2=O,22
4,Cc1nc(C(=O)Nc2cc(F)c(N3C(=O)C4=C(CCCC4)C3=O)cc2C)cs1,> 10000
5,Cc1cc(N2C(=O)C3=C(CCCC3)C2=O)c(F)cc1NC(=O)c1occc1C,58
6,O=C(Nc1ccc(N2C(=O)C3C(C2=O)[C@H]2C=C[C@@H]3C2)cc1)c1ccccn1 (some centres not stated),> 30000
7,Cc1ccoc1C(=O)Nc1c(F)cc(N2C(=O)[C@H]3CC=CC[C@H]3C2=O)c(F)c1F,> 10000
8,Cc1ccoc1C(=O)Nc1c(F)cc(N2C(=O)c3ccc(Cl)cc3C2=O)c(F)c1F,> 10000
9,Cc1ccoc1C(=O)Nc1c(F)cc(N2C(=O)c3ccc(F)cc3C2=O)c(F)c1F,> 10000
10,Cc1ccoc1C(=O)Nc1cc(F)c(N2C(=O)c3ccccc3C2=O)c(F)c1,> 10000
11,Cc1ccoc1C(=O)Nc1c(F)cc(N2C(=O)c3ccccc3C2=O)cc1F,> 10000
12,Cc1cc(N2C(=O)C3=C(CCCC3)C2=O)c(F)cc1NC(=O)c1ccco1,> 10000
13,Cc1ccoc1C(=O)Nc1c(F)cc(N2C(=O)c3cccc(F)c3C2=O)c(F)c1F,> 10000
14,Cc1cc(N2C(=O)C3=C(CCCC3)C2=O)c(F)cc1NC(=O)c1ccc(Cl)o1,> 10000

# Target: Metabotropic glutamate receptor 5 (Homo sapiens, UniProt P41594)
# Test: Positive allosteric modulation of mGluR5 (unknown origin) by calcium mobilization assay
# Assay type: functional
row,SMILES,EC50 [nM]
1,Cc1ccc2c(c1)C(=O)N(c1ccc(NC(=O)c3occc3C)c(F)c1)C2=O,> 30000

# Target: Metabotropic glutamate receptor 4 (Homo sapiens, UniProt Q14833)
# Test: Positive allosteric modulation of human mGluR4 by calcium mobilization assay
# Assay type: functional
# Sequence of Metabotropic glutamate receptor 4 (Q14833 whole entry): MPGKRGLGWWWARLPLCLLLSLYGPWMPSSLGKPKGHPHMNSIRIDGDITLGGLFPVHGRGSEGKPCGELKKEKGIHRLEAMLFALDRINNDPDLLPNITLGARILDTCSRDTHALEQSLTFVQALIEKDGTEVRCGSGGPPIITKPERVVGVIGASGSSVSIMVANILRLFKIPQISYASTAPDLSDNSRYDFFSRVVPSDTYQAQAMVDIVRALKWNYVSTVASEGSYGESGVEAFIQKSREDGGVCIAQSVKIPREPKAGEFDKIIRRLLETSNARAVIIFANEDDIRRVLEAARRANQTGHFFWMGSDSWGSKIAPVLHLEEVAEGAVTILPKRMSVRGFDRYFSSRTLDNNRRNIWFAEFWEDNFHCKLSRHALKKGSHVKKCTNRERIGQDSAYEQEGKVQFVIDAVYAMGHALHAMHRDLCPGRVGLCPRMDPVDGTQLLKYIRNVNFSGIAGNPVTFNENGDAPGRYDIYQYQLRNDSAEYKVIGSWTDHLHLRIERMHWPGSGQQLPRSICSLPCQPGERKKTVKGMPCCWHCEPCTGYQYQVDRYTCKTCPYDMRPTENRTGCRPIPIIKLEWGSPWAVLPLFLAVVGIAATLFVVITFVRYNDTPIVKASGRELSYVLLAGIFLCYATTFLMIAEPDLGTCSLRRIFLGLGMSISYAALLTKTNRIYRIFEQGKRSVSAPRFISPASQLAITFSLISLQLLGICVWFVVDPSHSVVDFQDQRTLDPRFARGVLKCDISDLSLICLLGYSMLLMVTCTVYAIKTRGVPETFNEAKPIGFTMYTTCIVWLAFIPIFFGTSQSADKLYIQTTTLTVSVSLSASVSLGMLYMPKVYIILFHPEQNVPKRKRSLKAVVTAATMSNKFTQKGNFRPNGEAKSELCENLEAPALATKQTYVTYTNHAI
row,SMILES,EC50 [nM]
1,Cc1ccc2c(c1)C(=O)N(c1ccc(NC(=O)c3occc3C)c(F)c1)C2=O,> 30000
2,Cc1nc(C(=O)Nc2cc(F)c(N3C(=O)C4=C(CCCC4)C3=O)cc2C)cs1,175
3,Cc1cc(N2C(=O)C3=C(CCCC3)C2=O)c(F)cc1NC(=O)c1occc1C,266
4,Cc1cc(N2C(=O)C3=C(CCCC3)C2=O)c(F)cc1NC(=O)c1ccco1,89
5,Cc1cc(N2C(=O)C3=C(CCCC3)C2=O)c(F)cc1NC(=O)c1ccc(Cl)o1,229

# Target: Metabotropic glutamate receptor 6 (Homo sapiens, UniProt O15303)
# Test: Positive allosteric modulation of mGluR6 (unknown origin) by calcium mobilization assay
# Assay type: functional
# Sequence of Metabotropic glutamate receptor 6 (O15303 whole entry): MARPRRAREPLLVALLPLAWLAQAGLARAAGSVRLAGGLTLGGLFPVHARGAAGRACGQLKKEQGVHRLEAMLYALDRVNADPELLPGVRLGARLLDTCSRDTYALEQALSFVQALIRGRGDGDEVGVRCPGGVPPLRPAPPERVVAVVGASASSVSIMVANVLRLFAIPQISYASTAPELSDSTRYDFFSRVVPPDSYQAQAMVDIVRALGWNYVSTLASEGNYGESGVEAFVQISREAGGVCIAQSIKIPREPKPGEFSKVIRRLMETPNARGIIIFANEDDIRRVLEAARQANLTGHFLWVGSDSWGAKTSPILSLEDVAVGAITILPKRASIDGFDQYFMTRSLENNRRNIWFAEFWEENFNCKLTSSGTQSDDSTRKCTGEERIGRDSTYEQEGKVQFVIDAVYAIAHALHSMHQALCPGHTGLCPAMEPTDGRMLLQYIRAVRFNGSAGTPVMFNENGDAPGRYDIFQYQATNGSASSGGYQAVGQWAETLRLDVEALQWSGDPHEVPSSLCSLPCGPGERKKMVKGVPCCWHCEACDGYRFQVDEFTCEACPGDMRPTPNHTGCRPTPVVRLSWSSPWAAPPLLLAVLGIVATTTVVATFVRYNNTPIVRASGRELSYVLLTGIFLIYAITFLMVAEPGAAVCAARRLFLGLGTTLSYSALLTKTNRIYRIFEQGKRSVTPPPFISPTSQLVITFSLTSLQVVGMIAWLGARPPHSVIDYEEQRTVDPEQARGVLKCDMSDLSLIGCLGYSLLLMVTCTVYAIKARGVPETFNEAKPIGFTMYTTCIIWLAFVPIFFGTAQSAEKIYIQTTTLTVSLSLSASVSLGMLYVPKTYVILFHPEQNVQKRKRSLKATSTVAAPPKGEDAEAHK
row,SMILES,EC50 [nM]
1,Cc1ccc2c(c1)C(=O)N(c1ccc(NC(=O)c3occc3C)c(F)c1)C2=O,> 30000

# Reference: ChEMBL document CHEMBL4680299 (Bioorg Med Chem Lett, 2021)
